# Assay results: PMC6332334, “3-H-[1,2]Dithiole as a New Anti-Trypanosoma cruzi Chemotype: Biological and Mechanism of Action Studies” (Molecules, 2015)
# Marks after values point to notes of the source that are not given here.
# Legend:
# [1] = target: T1, cruzipain (Trypanosoma cruzi, UniProt P25779); assay: Inhibition of T. cruzi cruzipain (Z-Phe-Arg-AMC fluorogenic substrate); assay type: biochemical; conditions: percentage of enzymatic inhibition at 100 μM; read-out: Cruzipain % Inhib100
# T1 construct: endogenous in cells; host or cells: T. cruzi epimastigotes, Tulahuen 2 strain
# Experimental: Initially, we tested the dithioles as inhibitors of the protease cruzipain from T. cruzi at a concentration of 100 μM.
# Cruzipain was purified to homogeneity from epimastigotes of the Tulahuen 2 strain by ConA-Sepharose affinity chromatography, as previously described. Cruzipain (2.5 μM ε = 58,285 M^−1·cm^−1) was incubated in 50 mM acetate buffer pH 5.5 with 50 mM DTT and 100 μM inhibitor was added, shaking the solution for 15 min at 27 °C. The derivatives were added diluted in DMSO, and the controls contained the same solvent concentration. The concentration of DMSO never exceeded 1% in the reaction medium. E-64 was used as a positive control of inhibition. Then, the fluorogenic substrate Z-Phe-Arg-AMC (100 μM) was added and the fluorescence was measured during 10 min at intervals of 3 s (excitation at 350 nm and emission at 460 nm) using a Varioskan Flash Spectrophotometer. From the slope of the negative control, we calculated the total (100%) enzyme activity, while the slopes obtained in the presence of the compounds yielded the percentage of remaining enzyme activity. The percentage of enzyme inhibition was determined as […]. The experiments were done in duplicate.
# [2] = test system: T. cruzi cells (Y strain, DTU Tc II); assay: 1H-NMR study of the excreted metabolites; assay type: cell-based, Trypanosoma cruzi
# Experimental: To gain insight into the changes promoted by the active 3-propylidene[1,2]dithioles 2 and 14 in some biochemical pathways, the metabolites excreted by the parasite using ^1H-NMR spectroscopy were analyzed. Changes in the excreted metabolites by T. cruzi Y strain (DTU Tc II, [24]), when the parasite cells were exposed to a bioactive compound, could be indicative of the modification of the biochemical pathway(s) by the agents. Spectra of the cell-free milieu of treated parasites were compared with those of the untreated T. cruzi-free milieu as the control. We focused mainly on the changes of excreted salts of the carboxylic acids, lactate (Lac), acetate (Ace), pyruvate (Pyr), and succinate (Succ) and the amino acids, alanine (Ala) and glycine (Gly), among the most relevant modified metabolites.
# For the ^1H-NMR spectroscopic studies, T. cruzi cells (Y strain, DTU Tc II) treated for 2 days, with each studied compound at concentrations corresponding to 2 × IC50 values (5 mL) were centrifuged at 1500× g for 10 min at 4 °C. The pellet was discarded, and the parasite-free supernatant was stored at −20 °C until use. Before measuring, DMF (0.1 mL, 10 mM) as the internal standard and D2O (0.1 mL) were added to the supernatant (0.3 mL). ^1H-NMR experiments were recorded at 20 °C on a Bruker Advance DPX-400 spectrometer (Bruker), operating at 400.132 MHz, with a 5 mm broadband inverse geometry probe. The acquisition parameters included: 90° pulse (zgpr, advance-version v 1.7.10.2, 1D sequence with f1 presaturation), 128 scans, and spectral width of 14.983 ppm. The acquisition time was 1.3664 s. Signal intensities were calculated by performing appropriate baseline corrections and then integrating the area under each of the resonances using MestRe-C NMR software. Spectra were analyzed using the Topspin 1.3 software package. The spectra were registered with water suppression in 5 mm NMR (Aldrich, St. Louis, MO, USA) sample tubes. The chemical displacements used to identify the respective metabolites were previously confirmed by adding each analyzed metabolite to the studied supernatant, as well as by the study of a control solution with 4 μg/mL of each metabolite in buffer (phosphate, pH = 7.4). Each run was done at least in triplicate and the Student t test was used to analyze the significance of the changes. […]
# [3] = IC50 × 2, 2 days, DMF internal standard
# T1 sequence (P25779 123-467): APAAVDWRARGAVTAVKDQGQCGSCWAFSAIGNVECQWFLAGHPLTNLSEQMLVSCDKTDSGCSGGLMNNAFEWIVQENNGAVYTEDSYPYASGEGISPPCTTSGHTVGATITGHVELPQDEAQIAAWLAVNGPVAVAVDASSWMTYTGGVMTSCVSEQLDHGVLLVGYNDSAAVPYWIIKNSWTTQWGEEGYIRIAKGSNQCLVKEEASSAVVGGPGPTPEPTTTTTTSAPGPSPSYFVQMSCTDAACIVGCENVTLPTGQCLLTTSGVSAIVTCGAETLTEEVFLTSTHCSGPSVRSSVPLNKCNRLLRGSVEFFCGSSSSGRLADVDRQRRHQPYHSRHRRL
smiles,measurement,setting,value
CC(=O)COc1ccc(C2=C/C(=C(\SCC(C)=O)C(C)=O)SS2)cc1 [Derivative 2],inhibition at 100 µM,[1],91.3 ± 2.8%
same,Concentration of excreted Ace,[2]; [3],23.28 ± 0.86
same,Concentration of excreted Ala,[2]; [3],17.76 ± 0.61
same,Concentration of excreted Gly,[2]; [3],2.11 ± 0.11 ^c
same,Concentration of excreted Lac,[2]; [3],8.73 ± 0.37
same,Concentration of excreted Pyr,[2]; [3],8.00 ± 0.35
same,Concentration of excreted Succ,[2]; [3],5.83 ± 0.24
same,Change of excreted metabolites compared to the control,"[2]; IC50 × 2, p < 0.05 Student's t-test",significantly decreased the levels of excreted Gly and Pyr
